Patent US12636342B2, “TARS derived from Akkermansia muciniphila or fragment thereof, and use thereof” (KOREA RESEARCH INSTITUTE OF BIOSCIENCE AND BIOTECHNOLOGY, priority 2020, dated 2026)

What was measured:
BMDMs = test: AmTARS-stimulated BMDMs pre-treated with kinase/CREB inhibitors; assay type: cell-based, mouse; settings: for IL-10 production by AmTARS: BMDMs pre-treated 1 h with inhibitor (10 μM; 666-15 1 μM) before AmTARS 24 h; for macrophage polarization (CD206 positive) by AmTARS: BMDMs pre-treated 1 h with inhibitor before AmTARS 24 h
Method: (A and B) Analysis of key molecules that inhibit the MAPK and PI3K/AKT signaling pathways. IL-10 produced by BMDMs pre-treated with inhibitors of ERK (PD98059, […]), p38 (SB203580, […]), MSK1/2 (SB747651A, 10 μM), CREB (666-15, 1 μM), PI3K (Wortmannin, 10 μM), and AKT1/2 (AKT1/2, 10 μM) for 1 h before treatment with either PBS or AmTARS for 24 h (n=6 per group) (A). Flow cytometry analysis of M2 macrophages in BMDMs pre-treated for 1 h with the indicated kinase inhibitors, before treatment with either PBS or AmTARS for 24 h (n=3 per group) (B). (C and D) Western blot analysis of MAPK signaling molecules in lysates of BMDMs (C) or THP1 cells (D) treated for different times with 0.5 μM AmTARS. (E) Western blot analysis of lysates of BMDMs pre-treated with α-IgG (Isotype, 1 μg ml-1) or α-TLR2 (1 μg ml-1) for 1 h before treatment with PBS, AmTARS (0.5 μM), or Pam3 (0.5 μM) for 30 min. (F and G) Western blot analysis of PI3K/AKT signaling molecules in lysates of BMDMs (F) or THP1 cells (G) treated with 0.5 μM AmTARS. […] Activation of AKT, ERK, and CREB was measured by western blot analysis of lysates of THP1 cells pre-treated with α-IgG, α-TLR1, α-TLR2, or α-TLR6 (1 μg ml-1) for 1 h before treatment for 30 min with PBS or AmTARS (0.5 µM). […] P-values were calculated using an unpaired two-tailed Student's t-test. Data shown in (C-H) are representative and repeated at least three times.
To identify the signaling pathway triggered by AmTARS, we first evaluated kinases and CREB. IL-10 production and M2 polarization were measured in BMDMs treated with inhibitors of ERK (PD98059), p38 (SB203580), MSK1/2 (SB747651A), CREB (666-15), PI3K (Wortmannin) and AKT (AKT1/2) before subsequent stimulation with AmTARS.

[1] = test system: mouse bone marrow-derived macrophages (BMDMs); test: ELISA of immune cytokine secretion in LPS-treated BMDMs (inflammatory environment); assay type: cell-based
Method: To determine whether AmTARS affects immune cytokine secretion when cellular inflammation was induced, mouse bone marrow-derived macrophages BMDMs as mouse-derived immune cells and human macrophages THP1 as human-derived immune cells were cultured by way of the same method as in Example 2.
Specifically, the cultured BMDMs and THP1 were treated with lipopolysaccharide (LPS) to induce an inflammatory response and were simultaneously treated with AmTARS at 0.1 μM, 0.2 μM, and 0.5 μM for 24 h to obtain cell cultures. The obtained cell cultures were analyzed for immune cytokine secretion by way of the same method as in Example 2.
Next, BMDMs were treated with LPS to create an inflammatory environment by way of the same method as in Example 3, and then treated with each TARS (AmTARS, BfTARS, eTARS, and hTARS) to investigate the secretion of IL-10.
An inflammatory environment was created through LPS in BMDMs by way of the same method as in Example 3, and then the cells were treated with the four types of fragments, and the immune cytokine secretion was determined by ELISA.

[2] = test system: mouse bone marrow-derived macrophages (BMDMs); test: ELISA of immune cytokine secretion in BMDMs under normal conditions; assay type: cell-based; settings: normal (non-inflammatory) conditions, 24 h
Method: Specifically, mouse bone marrow-derived macrophages (BMDMs) as mouse-derived immune cells were extracted from the mouse thighbone and shinbone, and then cultured in DMEM containing 10% fetal bovine serum (FBS) and antibiotics. Human macrophages (THP1) as human-derived immune cells were cultured in RPMI media containing 10% FBS and antibiotics.
The cultured cells were treated with AmTARS at 0.1 μM, 0.2 μM, and 0.5 μM for 24 h to obtain cell cultures. For cell removal, the media were centrifuged at 500×g for 10 min to obtain supernatants, which were then analyzed using an ELISA set (mouse interleukin (IL)-6, mouse IL-10, mouse tumor necrosis factor (TNF)-α, human IL-6, human IL-10, human TNF-α; BD Biosciences) to investigate the secretion of mouse- and human-derived immune cytokines. […]

[3] = Aminoacylation reaction (malachite green phosphate assay); assay type: biochemical; settings: L-threonine, ATP, 30 min, free Pi at 620 nm
Method: TARS is an […] involved in protein synthesis, and the domain and site involved in its function are well known. The constructed deletion mutants were confirmed to have deletions of parts irrelevant to the function, but the aminoacylation reaction experiment was conducted to determine whether the deletion mutants performed the intrinsic functions thereof appropriately.
Specifically, a 2× reaction solution (100 mM Tris-HCl (pH 7.5), 20 mM MgCl2, 200 mM NaCl, 200 mM KCl, 2 mM DTT, 500 μM ATP, and 5 mM L-threonine) was prepared, and 25 μL of a reaction solution, 20 μL of distilled water, and 5 μL of protein were added to make a final 50 μL volume, followed by incubation for 30 min. Thereafter, a reaction was conducted using a malachite green phosphate assay kit (Bioassay Systems) for 30 min, and the free monophosphate group (Pi) was measured at a wavelength of 620 nm.

[4] = LPS-induced inflammatory environment, 24 h

## C[S+]([O-])c1ccc(-c2nc(-c3ccncc3)c(-c3ccc(F)cc3)[nH]2)cc1 (stereo not shown) [SB203580]
BMDMs
  IL-10 production by AmTARS: significant suppression
  macrophage polarization (CD206 positive) by AmTARS: significant suppression

## R2: Functional site 2 peptide, SEQ ID NO: 4, residues 290-312 of SEQ ID NO: 1 (KLSQEGASCAELFNGLATGTIEG; Functional region 2(290˜312))
[1]; LPS, peptide 100 μM
  secretion of IL-6: reduced
  secretion of IL-10: increased
[1]; LPS, peptide 300 μM
  secretion of IL-6: reduced
  secretion of IL-10: increased
[1]; [4]
  secretion of IL-6: reduced
  secretion of IL-10: increased

## COc1cccc(-c2cc(=O)c3ccccc3o2)c1N [PD98059]
BMDMs
  IL-10 production by AmTARS: significant suppression
  macrophage polarization (CD206 positive) by AmTARS: significant suppression

## CCn1c(-c2nonc2N)nc2cncc(CNC3CCNCC3)c21 [SB747651A]
BMDMs
  IL-10 production by AmTARS: significant suppression
  macrophage polarization (CD206 positive) by AmTARS: significant suppression

## O=c1[nH]c2ccccc2n1C1CCN(Cc2ccc(-c3nc4cc5[nH]cnc5cc4nc3-c3ccccc3)cc2)CC1 [AKT1/2]
BMDMs
  IL-10 production by AmTARS: significant suppression
  macrophage polarization (CD206 positive) by AmTARS: significant suppression

B1: BfTARS: TARS derived from Bacteroides fragilis (protein)
chain: MIKITFPDGSVREYNEGVNGLQIAESISSRLAQDVLACGVNGEIYDLGRPINEDASVVLYKWEDEQGKHAFWHTSAHLLAEALQELYPGIQFGIGPAIENGFYYDVDPGEAVIKEADLPAIEAKMAELVAKKEAVVRRDIAKGDALKMFGDRGETYKCELISELEDGHITTYTQGDFTDLCRGPHLMTTAPIKAIKLTSVAGAYWRGHEDRKMLTRIYGITFPKKKMLDEYLALMEEAKKRDHRKIGKEMQLFMFSDTVGKGLPMWLPKGTALRLRLQDFLRRIQTRYDYQEVITPPIGNKLLYVTSGHYAKYGKDAFQPIHTPEEGEEYFLKPMNCPHHCEIYKNFPRSYKDLPLRIAEFGTVCRYEQSGELHGLTRVRSFTQDDAHIFCRPDQVKGEFLRVMDIISIVFRSMDFDNFEAQISLRDKVNREKYIGSDENWEKAEQAIIEACEEKGLKAKIEYGEAAFYGPKLDFMVKDAIGRRWQLGTIQVDYNLPERFELEYMGSDNQKHRPVMIHRAPFGSMERFVAVLIEHTAGKFPLWLTPEQVVILPISEKFNEYAEKVKTYLKMKEIRAIVDDRNEKIGRKIRDNEMKRIPYMLIVGEKEAENGEVSVRRQGEGDKGTMKFEEFGEILNEEVQNMINKW
modifications: 6xHis tag; misc_feature 1..1941 Bacteroides fragilis TARS
[1]; [4]
  secretion of IL-10: not significantly increased

B2: eTARS: TARS derived from E. coli (protein)
chain: MPVITLPDGSQRHYDHAVSPMDVALDIGPGLAKACIAGRVNGELVDACDLIENDAQLSIITAKDEEGLEIIRHSCAHLLGHAIKQLWPHTKMAIGPVIDNGFYYDVDLDRTLTQEDVEALEKRMHELAEKNYDVIKKKVSWHEARETFANRGESYKVSILDENIAHDDKPGLYFHEEYVDMCRGPHVPNMRFCHHFKLMKTAGAYWRGDSNNKMLQRIYGTAWADKKALNAYLQRLEEAAKRDHRKIGKQLDLYHMQEEAPGMVFWHNDGWTIFRELEVFVRSKLKEYQYQEVKGPFMMDRVLWEKTGHWDNYKDAMFTTSSENREYCIKPMNCPGHVQIFNQGLKSYRDLPLRMAEFGSCHRNEPSGSLHGLMRVRGFTQDDAHIFCTEEQIRDEVNGCIRLVYDMYSTFGFEKIVVKLSTRPEKRIGSDEMWDRAEADLAVALEENNIPFEYQLGEGAFYGPKIEFTLYDCLDRAWQCGTVQLDFSLPSRLSASYVGEDNERKVPVMIHRAILGSMERFIGILTEEFAGFFPTWLAPVQVVIMNITDSQSEYVNELTQKLSNAGIRVKADLRNEKIGFKIREHTLRRVPYMLVCGDKEVESGKVAVRTRRGKDLGSMDVNEVIEKLQQEIRSRSLKQLEE
modifications: 6xHis tag; misc_feature 1..1929 Escherichia coli TARS
[1]; [4]
  secretion of IL-10: not significantly increased
[2]
  secretion/production of IL-10: no anti-inflammatory immune function

B3: Akkermansia muciniphila-derived YARS (protein)
chain: MTIDEQLDILMGGTAVVISREELKERLKLGRPLRVKLGVDPTAPDIHLGHTVAIEKLRQFQELGHQAVLLIGDFTATIGDPSGRSVTRPPLSREQVLENAETYTKQAFKILDRDKTEIVYNGDWFRKMTYEEVLKLNSRVTMQQMLAREDFKARVEGGKEVRLHEMQYPIMQGWDSVEIRADVELGGTDQLFNILVGRDLQKEEGMLPQIAMTMPLLEGLDGVRKMSKSYGNYVGVDESPEMMFGKMMSASDELMDRYYLVLLGEKRDMGLHPMEAKKLLAWKITARYHDSAAADAARSDWETRFSKRDLAAADLPEVEIASLPADMNALALVSFLFENVFQVKKSNGVLRKEHFTPGAIQLNDVKMTDPSAVLELAPGSILRLSKKHAVRFK
modifications: 6xHis tag; misc_feature 1..1182 Akkermansia muciniphila YARS
notes: Akkermansia muciniphila tyrosyl-tRNA synthetase, used as control
[3]
  aminoacylation reaction / enzymatic activity: no reaction

B4: hTARS: TARS derived from Homo sapiens (protein)
chain: MFEEKASSPSGKMGGEEKPIGAGEEKQKEGGKKKNKEGSGDGGRAELNPWPEYIYTRLEMYNILKAEHDSILAEKAEKDSKPIKVTLPDGKQVDAESWKTTPYQIACGISQGLADNTVIAKVNNVVWDLDRPLEEDCTLELLKFEDEEAQAVYWHSSAHIMGEAMERVYGGCLCYGPPIENGFYYDMYLEEGGVSSNDFSSLEALCKKIIKEKQAFERLEVKKETLLAMFKYNKFKCRILNEKVNTPTTTVYRCGPLIDLCRGPHVRHTGKIKALKIHKNSSTYWEGKADMETLQRIYGISFPDPKMLKEWEKFQEEAKNRDHRKIGRDQELYFFHELSPGSCFFLPKGAYIYNALIEFIRSEYRKRGFQEVVTPNIFNSRLWMTSGHWQHYSENMFSFEVEKELFALKPMNCPGHCLMFDHRPRSWRELPLRLADFGVLHRNELSGALTGLTRVRRFQQDDAHIFCAMEQIEDEIKGCLDFLRTVYSVFGFSFKLNLSTRPEKFLGDIEVWDQAEKQLENSLNEFGEKWELNSGDGAFYGPKIDIQIKDAIGRYHQCATIQLDFQLPIRFNLTYVSHDGDDKKRPVIVHRAILGSVERMIAILTENYGGKWPFWLSPRQVMVVPVGPTCDEYAQKVRQQFHDAKFMADIDLDPGCTLNKKIRNAQLAQYNFILVVGEKEKISGTVNIRTRDNKVHGERTISETIERLQQLKEFRSKQAEEEF
modifications: 6xHis tag; misc_feature 1..2175 Homo sapiens TARS
[1]; [4]
  secretion of IL-10: not significantly increased
